Experimental findings from patent publication US5780221A, “Identification of enantiomeric ligands” (Whitehead Institute for Biomedical Research, priority 1996, dated 1998) are described below.

Ends that are not written are not given here.

The target in one experiment is T1, L-SH3 domain (Gallus gallus, UniProt P00523).
T1 construct: Residues 81 to 140 of chicken c-SRC were cloned; modified TrpLE leader (Met to Leu, Cys to Ala) (N, cleaved yes); His9 within the C-terminal region of the TrpLE leader (N, cleaved yes); made in house; host or cells: Escherichia coli BL21(DE3) pLysS, plasmid pMMHb-SRC SH3
The experiment can be described thus: Competitive enzyme-linked immunosorbent assay (ELISA) for L-SH3 binding. Set-up: species or system chicken. To be noted: L- and D-amino acid ligands. On the procedure:
(§1) The affinity of Pep-DI for the L-SH3 domain was determined by a competitive enzyme-linked immunosorbent assay (ELISA). Single wells of a 96-well plate were coated with 5 μg of the L-SH3 domain (Scott, J. K. and Smith, G. P., Science, 249:386 (1990); Smith, G. P. and Scott, J. K., Methods in Enzymol., 217:228 (1993)). Wells were blocked with BSA, and phages expressing the L-SH3-binding insert […] (SEQ ID NO: 10) were allowed to bind in 10 mM NaHPO4, pH 7.2, 15 mM NaCl, 1 mg/ml of BSA, 0.05% NaN3, and 0.1% Tween 20, in the presence of increasing amounts of competitor peptide. Phage binding was quantified with a rabbit M13 antibody (Stratagene) and alkaline phosphatase-labeled goat antibody to rabbit (Pierce), with a fresh solution of p-nitrophenol phosphate as substrate. Absorbance at 410 nm was determined with a Dynatech micotiter plate reader. […] Relative values for Kd were obtained as described (Minor, D. L., Jr. and Kim, P. S., Nature, 367:660 (1994)). […] A solution of the peptide was titrated into 1 μM SH3 solution in 15 mM NaCl and 10 mM NaHPO4, pH 7.2. Tryptophan fluorescence was induced by excitation at 295 nm (5 nm slit width), and emission was measured at 339 nm (10 nm slit width), with a Hitachi F-4500 fluorescence spectrometer. The dissociation constant was determined by Scatchard analysis.

In the next experiment the target is T2, SH3 domain (Gallus gallus, UniProt P00523).
T2 construct: Residues 81 to 140 of chicken c-SRC were cloned; modified TrpLE leader (Met to Leu, Cys to Ala) (N, cleaved yes); His9 within the C-terminal region of the TrpLE leader (N, cleaved yes); made in house; host or cells: E. coli in M9 medium with (15NH4)2SO4, plasmid pMMHb-SRC SH3
Put plainly: Direct tryptophan fluorescence spectroscopy titration. In kind it is binding, chicken. To be noted: 1 μM SH3, 15 mM NaCl and 10 mM NaHPO4, pH 7.2; Scatchard analysis. On the procedure:
as §1

The target in the next experiment is T3, (L)-SH3 (Gallus gallus, UniProt P00523).
T3 construct: E. coli BL21(DE3) pLysS, pMMHb TrpLE-His9 fusion, cleaved with CNBr
The experiment can be described thus: Retention of bacterially expressed (L)-SH3 on peptide affinity column. In kind it is binding. To be noted: residues 81-140 of chicken c-Src. As to the method:
The L- and D-enantiomers of the chicken c-SRC domain were prepared by bacterial expression and chemical synthesis, respectively. The biotinylated, synthetic, 60-amino acid D-SH3 domain was refolded and purified by affinity chromatography, with a D-amino acid version of a known peptide ligand for the SH3 domain (Yu, H., et al., Cell, 76:933 (1994)).
The all D amino acid SH3 domain, sequence […] S-COOH-terminus (SEQ ID No: 1), residues 81-140 of chicken c-SRC, was synthesized on HMP resin (ABI/Perkin Elmer) with an ABI 431A peptide synthesizer and ABI fastmoc cycles (Fmoc chemistry with HBTU activation and capping with acetic anhydride). Protected D-amino acids were obtained from Bachem California., Bachem Bioscience, Advanced Chemtech, and Novabiochem. For D-Ile and D-Thr, the side chain enantiomers were used, in which the chirality of the side chain is also inverted relative to naturally occurring L-Thr and L-Ile. After completion of the synthesis, the NH2 -terminus of the peptide was modified with NHS-LC-biotin II (Pierce). After cleavage, the peptide was lyophilized, dissolved in 6 M guanidine HCl, pH 6.0, and dialyzed against 100 mM NaHPO4 and 100 mM NaCl, pH 6.0, with the use of dialysis tubing with a molecular cutoff of 3,500 daltons (D) (Spectra/Por). […]

Take (D)-RCLSGLRLGLVPCA [Pep-D1]: the “competition with the L-amino acid ligand” value at L-SH3 domain was “competition observed for the binding of these two ligands”.

The substance YGGRELPPLPRF-NH2 yielded a Kd at SH3 domain of 6 µM. In addition, on (L)-SH3, the “retention of bacterially expressed (L)-SH3 on peptide column” value is on record as “can be retained on the (L)-enantiomer”.
